Reference: the COVID Moonshot data (paper PMC11187573), “Identification of SARS-CoV-2 Mpro inhibitors through deep reinforcement learning for de novo drug design and computational chemistry approaches” (RSC Medicinal Chemistry, 2024)

Key:
[1] = biological target: SARS-CoV-2 Main Protease (SARS-CoV-2) (UniProt P0DTD1)
[2] = biological target: SARS-CoV-2 Main Protease (SARS-CoV-2) (UniProt P0DTD1); remark: listed apart in the source

SMILES | inhibition ([1]; 20.0 µM) [%] | inhibition ([1]; 50.0 µM) [%] | IC50 [2] [µM] | inhibition ([2]; 50.0 µM) [%] | IC50 [1] [µM] | inhibition ([2]; 20.0 µM) [%]
O=[N+]([O-])c1cnc(Sc2nnc(-c3ccc(Cl)cc3)o2)s1 | 28.9 | 71.2 | 0.319 |  |  | 
C[C@@H]1CS/C(=N\NC(=O)C(=O)C(NC(=O)C2CCCCCC2)C2CCOCC2)N1C (stereo in doubt) |  | 2.64 |  | 21 |  | 
O=C1CC(Oc2cc(Cl)cc(N(CCC3CCCCC3)C(=O)Nc3cncc4ccccc34)c2)N1 (stereo unspecified) |  |  | 1.58 |  | 0.105 | 
COC(=O)c1ccc(-c2cc(Cl)cc(CC(=O)Nc3cnccc3C)c2)c(OC)c1 |  |  | 12 |  | 12.7 | 
C=CC(=O)N1CCN(Cc2ccc(F)cc2)CC1 | 7.92 | 11.4 |  | 0 |  | 
c1ccc(-c2cc(Sc3nnc(-c4cccs4)o3)n3ncnc3n2)cc1 | 47.1 | 96.7 | 0.152 |  |  | 
CCOc1ccccc1OC1CCN(C(=O)c2c(C)c(=O)[nH]c3ccccc23)C1 (stereo unspecified) | 0.342 | 4.57 |  | 0 |  | 
CC(C)C[C@H](NC(=O)OCc1ccccc1)C(=O)N[C@H](C(=O)NCC(=O)C=[N+]=[N-])C(C)C (stereo in doubt) |  | 11.5 |  | 15.3 |  | 
Cn1cc(NC(=O)Nc2ccccn2)c2ccccc2c1=O | -2.17 | -0.727 |  | 0 |  | 
O=C1Nc2cc(N3CCCC3)ccc2C1=O | 7.46 | 37.3 |  | 0 |  | 
CC(=O)N1CCN(CC(=O)Nc2cncc3ccccc23)CC1 |  |  | 72.5 | 42.4 | 71.7 | 
CCOc1ccccc1CN1C(=O)C(=O)c2cc(Br)ccc21 | 0.566 | 3.64 | 12.4 | 72.2 |  | 
O=S(=O)(Nc1ccccc1SCc1cccc(Cl)c1F)c1cc(Cl)sc1Cl | 90.3 | 81.3 | 1.92 |  |  | 
O=C(Nc1ccc([N+](=O)[O-])cc1Cl)c1cc(Cl)ccc1O |  | -22.8 |  | 21 |  | 
COc1cccc(CNC(=O)N2CCN(C(=O)N3CCCCC3)CC2)c1 | -3.31 | -0.332 |  | 0 |  | 
COc1ccc2c(c1F)NC(=O)C2=O | -1.15 | 3.02 |  | 7.79 |  | 
Cc1ccncc1NC(=O)C[C@H](c1ccccc1)N1CCC(O)CC1 (stereo in doubt) | 6.5 | 34.5 | 67.5 |  |  | 
CC(C)C[C@@H]1CN(C(=O)CCl)CCN1Cc1cccc(Cl)c1 (stereo in doubt) | 99.2 | 99.5 | 0.515 | 100 |  | 
O=C1C(=O)N(Cc2ncon2)c2ccc(Br)cc21 | -1.88 | -2.4 | 3.79 | 94.1 |  | 
Cc1ccccc1NC(=O)CC1SC(=O)N(c2ccccc2)C1=O (stereo unspecified) | 92.6 | 94.9 | 0.658 |  |  | 

SMILES | inhibition ([1]; 20.0 µM) [%] | inhibition ([1]; 50.0 µM) [%] | IC50 [2] [µM] | inhibition ([2]; 50.0 µM) [%] | IC50 [1] [µM] | inhibition ([2]; 20.0 µM) [%]
COc1ccccc1OCC(C)NC(=O)c1cc(=O)[nH]c2ccc(F)cc12 (stereo unspecified) | 42 | 59.3 |  | 40.1 |  | 
CCc1cccc(CC)c1NC(=O)CN1C(=O)C(=O)c2cc(OC)ccc21 | -6.58 | -0.841 |  | 13 |  | 
C=CC(=O)N(c1ccc(C(C)OC)cc1)C(C(=O)Nc1cccc(CC)c1)c1cccnc1 (stereo unspecified) | 36.6 | 63.7 |  |  |  | 4.44
O=C(Nc1cccc(C(F)(F)F)c1)Nc1ccccc1Sc1ncc([N+](=O)[O-])s1 | 55.9 | 76.3 | 0.219 |  |  | 
O=C(Nc1ccc([N+](=O)[O-])cc1)c1cc(Cl)ccc1O | -7.24 | -15.6 |  | 6 |  | 2.8
O=S(=O)(Cc1noc(C2CC2)n1)Nc1cccnc1 | -2.48 | -1.33 |  | 9.43 |  | 
O=c1oc(Nc2ccccc2)nc2ccccc12 | 68.6 | 90.4 | 0.363 |  |  | 
CS(=O)(=O)N1CCc2ccc(CN3CCN(C(=O)CCl)CC3)cc2C1 | 29.9 | 62.5 | 38.4 | 71.8 |  | 
CCOC(=O)c1cc(-c2ccccc2)sc1NC(=O)Cc1csc(-c2ccccc2)n1 | 91.8 | 97.9 | 2.69 |  |  | 
CC(C)Cn1cc(NC(=O)NC2=NN(c3ccccc3)CC2)c2ccccc2c1=O | 1.37 | 5.45 |  | -5.97 |  | 
COc1ccc(-c2cc(COc3cc(Cl)cc(CC(=O)Nc4cnccc4C)c3)on2)cc1 |  |  | 13.8 | 67.3 | 71.5 | 
Cc1cc([C@H](C)C(=O)O)cc2[nH]c3ccc(Cl)cc3c12 (stereo in doubt) | 0.304 | 3.37 |  | 9.04 |  | 
COc1ccc(CN2C(=O)C(=O)c3cc(Br)cc(C)c32)cc1OC | -2.84 | 0.559 | 1.23 | 99.3 |  | 
N#Cc1ccc(CN2C(=O)C(=O)c3cccc(Br)c32)c(F)c1 | -1.68 | -0.391 | 14.3 | 72.1 |  | 
C=CC(=O)N1CCN(S(C)(=O)=O)CC1c1ccccc1 (stereo unspecified) | -0.438 | 2.89 |  | 0 |  | 
C=CC(=O)N(C1CC(C)OC1=O)C(C(=O)NC(C)(C)C)c1cccnc1 (stereo unspecified) | -2.18 | 1.34 |  | 0 |  | 
O=C(Cc1cc(Cl)cc(OC2CC(=O)N2)c1)Nc1cncc2ccccc12 (stereo unspecified) |  |  | 0.157 |  | 0.203 | 
Cc1cccc(C)c1NC(=O)CN1C(=O)C(=O)c2ccccc21 | -5.56 | -2.09 |  | 0 |  | 
N#C/C(C(=O)Nc1ccc(F)cc1)=C(/O)c1ccc(Cl)cc1 |  | 22.2 | 0.234 | 100 |  | 
Cc1ccc(CN2CCC(CNC(=O)Nc3cn(CC(C)C)c(=O)c4ccccc34)C2)cc1 (stereo unspecified) | -3.01 | 0.927 | 92.3 |  |  | 

SMILES | inhibition ([1]; 20.0 µM) [%] | inhibition ([1]; 50.0 µM) [%] | IC50 [2] [µM] | inhibition ([2]; 50.0 µM) [%] | IC50 [1] [µM] | inhibition ([2]; 20.0 µM) [%]
CCC(=O)Nc1ccc(N(Cc2ccsc2)C(=O)Cn2nnc3ccccc32)cc1 | 79.7 | 89.3 |  | 78.1 |  | 
CNC(=O)c1cc(Cl)cc(CC(=O)Nc2cnccc2C)c1 |  |  | 43.9 |  | 51.5 | 
O=C(Cc1ccsc1)N1CCN(c2cc(-c3cccs3)n[nH]2)CC1 | 13.1 | 42.2 | 78.2 |  |  | 
CSC1=C(C#N)C2(CCCCC2)C(C#N)=C(NC(=O)CCl)N1 |  |  | 1.52 | 97.5 | 1.14 | 
N#Cc1cnn(C(=O)c2cccs2)c1C1CC1 | 33.2 | 69 | 0.363 |  |  | 
Cc1ncccc1NC(=O)Cc1cccc(Cl)c1 | -4.59 | -3.9 |  | 0 |  | 
C=CC(=O)N(C(C)COc1cccc(F)c1)C(C(=O)NC(C)(C)C)c1cccnc1 (stereo unspecified) | -1.52 | -5.54 |  | 0 |  | 
CC(=O)Oc1ccccc1C(=O)Nc1ncc([N+](=O)[O-])s1 |  | -8.72 |  | 0 |  | 
Cc1cnc2c(-c3ccc4[nH]ncc4c3)c(-c3ccc(F)cc3)nn2c1 | -1.68 | -1 |  | 34.7 |  | 
CC(C)Cn1cc(NC(=O)NCCCN2CCC(C)CC2)c2ccccc2c1=O | -1.82 | -1.61 | 98.2 |  |  | 
CC(NC(=O)CCl)c1cc(F)cc(Cl)c1 (stereo unspecified) | 40.6 | 74.5 | 21 | 100 |  | 
COc1cc(Cl)cc(CC(=O)Nc2cnccc2C)c1 | 24.6 | 48.3 | 43.6 |  |  | 
O=C(Cc1ccc(Cl)c(Cl)c1)Nc1cncc2ccccc12 |  |  | 0.132 |  | 0.261 | 
C=CC(=O)N(C(CO)CC#CC)C(C(=O)NC(C)(C)C)c1cccnc1 (stereo unspecified) | -4.06 | -4.3 |  | 0 |  | 
O=S(=O)(Cc1nc(-c2ccncc2)no1)Nc1ccc(N2CCCCC2)cc1 | 3.34 | 2.66 |  | 0 |  | 
COc1ccccc1OC1CCCN(C(=O)c2c(C)c(=O)[nH]c3ccccc23)C1 (stereo unspecified) | -2.54 | -1.13 |  | 0 |  | 
O=C(Cc1cc(Cl)cc2c1OCC2)Nc1cncc2ccccc12 |  |  | 0.492 | 78.3 | 1.45 | 
CO[C@@H]1C[C@@H](COc2cccnc2)N(c2ncccn2)C1 (stereo in doubt) | -6.63 | -1.19 |  | 0 |  | 
C#Cc1ncccc1NC(=O)Cc1cccc(Cl)c1 | -2.01 | 3.62 |  | 7.93 |  | 
